Test results taken from patent US12152024B2, “Pesticidally active heterocyclic derivatives with sulphur and hydroxylamine substituents” (SYNGENTA PARTICIPATIONS AG, priority 2016, dated 2024).

Experiments:
Assay type in all cases: in vivo
[1] = system: Spodoptera littoralis (Egyptian Cotton Leaf Worm); experiment: Activity against Spodoptera littoralis (Egyptian cotton leaf worm), cotton leaf discs sprayed; conditions: for percent control (mortality, anti-feedant effect or growth inhibition) at 200 ppm: foliar, 72 h, application rate 200 ppm, L1 larvae, 3 days after infestation, read-out: control (mortality, anti-feeding effect or growth inhibition)
Description: Cotton leaf discs were placed onto agar in 24-well microtiter plates and sprayed with aqueous test solutions prepared from 10′000 ppm DMSO stock solutions. After drying the leaf discs were infested with five L1 larvae. The samples were assessed for mortality, anti-feeding effect, and growth inhibition in comparison to untreated samples 3 days after infestation. Control of Spodoptera littoralis by a test sample is given when at least one of the categories mortality, anti-feedant effect, and growth inhibition is higher than the untreated sample.

[2] = system: Plutella xylostella (Diamond Back Moth); experiment: Activity against Plutella xylostella (diamond back moth), artificial diet; conditions: for percent effect (mortality or growth inhibition) at 200 ppm: 120 h, application rate 200 ppm, L2 larvae, 5 days after infestation, read-out: effect in at least one of the two categories (mortality or growth inhibition)
Description: (§1) 24-well microtiter plates with artificial diet were treated with aqueous test solutions prepared from 10′000 ppm DMSO stock solutions by pipetting. After drying, the plates were infested with L2 larvae (10 to 15 per well). The samples were assessed for mortality and growth inhibition in comparison to untreated samples 5 days after infestation.

[3] = system: Myzus persicae (Green Peach Aphid); experiment: Activity against Myzus persicae (green peach aphid): feeding/contact activity; conditions: for mortality at 200 ppm: Myzus persicae, 144 h, application rate 200 ppm, feeding/contact, mixed ages, 6 days after infestation
Description: Sunflower leaf discs were placed onto agar in a 24-well microtiter plate and sprayed with aqueous test solutions prepared from 10′000 ppm DMSO stock solutions. After drying, the leaf discs were infested with an aphid population of mixed ages. The samples were assessed for mortality 6 days after infestation.

[4] = system: Diabrotica balteata (corn root worm); experiment: Activity against Diabrotica balteata (corn root worm), maize sprouts sprayed; conditions: for percent effect (mortality or growth inhibition) at 200 ppm: 96 h, application rate 200 ppm, L2 larvae, 4 days after infestation, read-out: effect in at least one of the two categories (mortality or growth inhibition)
Description: as §1, with “Maize sprouts placed onto an agar layer in 24-well” for “24-well”, “plates” for “plates with artificial diet”, “spraying.” for “pipetting.”, “(6” for “(10”, “10” for “15”, “4” for “5”

[5] = system: Bemisia tabaci (Cotton White Fly); experiment: Activity against Bemisia tabaci (cotton white fly); conditions: 144 h, application rate 200 ppm, adult white flies, 6 days after incubation
Description: Cotton leaf discs were placed on agar in 24-well microtiter plates and sprayed with aqueous test solutions prepared from 10′000 ppm DMSO stock solutions. After drying the leaf discs were infested with adult white flies. The samples were checked for mortality 6 days after incubation.

[6] = system: Myzus persicae (Green Peach Aphid); experiment: Activity against Myzus persicae (green peach aphid): systemic activity; conditions: for mortality at 24 ppm: Myzus persicae, 144 h, test rate 24 ppm, systemic, pea seedling roots in test solution, 6 days
Description: Roots of pea seedlings infested with an aphid population of mixed ages were placed directly into aqueous test solutions prepared from 10′000 DMSO stock solutions. The samples were assessed for mortality 6 days after placing seedlings into test solutions.

[7] = system: Euschistus heros (Neotropical Brown Stink Bug); experiment: Activity against Euschistus heros (neotropical brown stink bug), soybean leaves sprayed; conditions: 120 h, application rate 200 ppm, N2 nymphs, 5 days after infestation, read-out: effect in at least one of the two categories (mortality or growth inhibition)
Description: Soybean leaves on agar in 24-well microtiter plates were sprayed with aqueous test solutions prepared from 10′000 ppm DMSO stock solutions. After drying the leaves were infested with N2 nymphs. The samples were assessed for mortality and growth inhibition in comparison to untreated samples 5 days after infestation.

Compound: CCSc1cccnc1-c1nc2cc(C(F)(F)F)n(OC)c(=O)c2n1C [Compound A1, 2-(3-ethylsulfanyl-2-pyridyl)-5-methoxy-3-methyl-6-(trifluoromethyl) imidazo[4,5-c]pyridin-4-one]
- percent control (mortality, anti-feedant effect or growth inhibition) at 200 ppm [1]: ≥ 80%
- percent effect (mortality or growth inhibition) at 200 ppm [2]: ≥ 80%
- mortality at 200 ppm [3]: ≥ 80%
- percent effect (mortality or growth inhibition) at 200 ppm [4]: ≥ 80%

Compound: CCS(=O)(=O)c1ccc(-n2ccnn2)nc1-c1nc2cc(C(F)(F)F)n(OC)c(=O)c2n1C [Compound A4, 2-[3-ethylsulfonyl-6-(triazol-1-yl)-2-pyridyl]-5-methoxy-3-methyl-6-(trifluoromethyl)imidazo[4,5-c]pyridin-4-one]
- mortality at 200 ppm [5]: ≥ 80%
- mortality at 24 ppm [6]: ≥ 80%
- percent control (mortality, anti-feedant effect or growth inhibition) at 200 ppm [1]: ≥ 80%
- percent effect (mortality or growth inhibition) at 200 ppm [7]: ≥ 80%
- percent effect (mortality or growth inhibition) at 200 ppm [2]: ≥ 80%
- mortality at 200 ppm [3]: ≥ 80%
- percent effect (mortality or growth inhibition) at 200 ppm [4]: ≥ 80%

Compound: CCS(=O)(=O)c1ccc(-n2nccn2)nc1-c1nc2cc(C(F)(F)F)n(OC)c(=O)c2n1C [Compound A5, 2-[3-ethylsulfonyl-6-(triazol-2-yl)-2-pyridyl]-5-methoxy-3-methyl-6-(trifluoromethyl)imidazo[4,5-c]pyridin-4-one]
- mortality at 24 ppm [6]: ≥ 80%
- percent control (mortality, anti-feedant effect or growth inhibition) at 200 ppm [1]: ≥ 80%
- percent effect (mortality or growth inhibition) at 200 ppm [7]: ≥ 80%
- percent effect (mortality or growth inhibition) at 200 ppm [2]: ≥ 80%
- mortality at 200 ppm [3]: ≥ 80%
- percent effect (mortality or growth inhibition) at 200 ppm [4]: ≥ 80%

Compound: CCS(=O)(=O)c1cc(C(F)(F)F)cnc1-c1nc2cc(C(F)(F)F)n(OC)c(=O)c2n1C [Compound A6, 2-[3-ethylsulfonyl-5-(trifluoromethyl)-2-pyridyl]-5-methoxy-3-methyl-6-(trifluoromethyl)imidazo[4,5-c]pyridin-4-one]
- mortality at 24 ppm [6]: ≥ 80%
- percent control (mortality, anti-feedant effect or growth inhibition) at 200 ppm [1]: ≥ 80%
- percent effect (mortality or growth inhibition) at 200 ppm [7]: ≥ 80%
- percent effect (mortality or growth inhibition) at 200 ppm [2]: ≥ 80%
- mortality at 200 ppm [3]: ≥ 80%
- percent effect (mortality or growth inhibition) at 200 ppm [4]: ≥ 80%

Compound: CCS(=O)(=O)c1ccccc1-c1nc2cc(C(F)(F)F)n(OC)c(=O)c2n1C [Compound A7, 2-(2-ethylsulfonylphenyl)-5-methoxy-3-methyl-6-(trifluoromethyl)imidazo[4,5-c]pyridin-4-one]
- mortality at 24 ppm [6]: ≥ 80%
- percent control (mortality, anti-feedant effect or growth inhibition) at 200 ppm [1]: ≥ 80%
- percent effect (mortality or growth inhibition) at 200 ppm [7]: ≥ 80%
- percent effect (mortality or growth inhibition) at 200 ppm [2]: ≥ 80%
- mortality at 200 ppm [3]: ≥ 80%
- percent effect (mortality or growth inhibition) at 200 ppm [4]: ≥ 80%

Compound: CCS(=O)(=O)c1ccc(N)nc1-c1nc2cc(C(F)(F)F)n(OC)c(=O)c2n1C [Compound A13, 2-(6-amino-3-ethylsulfonyl-2-pyridyl)-5-methoxy-3-methyl-6-(trifluoromethyl)imidazo[4,5-c]pyridin-4-one]
- mortality at 200 ppm [5]: ≥ 80%
- mortality at 24 ppm [6]: ≥ 80%
- percent control (mortality, anti-feedant effect or growth inhibition) at 200 ppm [1]: ≥ 80%
- percent effect (mortality or growth inhibition) at 200 ppm [7]: ≥ 80%
- percent effect (mortality or growth inhibition) at 200 ppm [2]: ≥ 80%
- mortality at 200 ppm [3]: ≥ 80%
- percent effect (mortality or growth inhibition) at 200 ppm [4]: ≥ 80%

Compound: CCS(=O)(=O)c1cc(C(C)(C)C#N)ccc1-c1nc2cc(C(F)(F)F)n(OC)c(=O)c2n1C [Compound A15, 2-[3-ethylsulfonyl-4-[5-methoxy-3-methyl-4-oxo-6-(trifluoromethyl)imidazo[4,5-c]pyridin-2-yl]phenyl]-2-methyl-propanenitrile]
- mortality at 200 ppm [5]: ≥ 80%
- mortality at 24 ppm [6]: ≥ 80%
- percent effect (mortality or growth inhibition) at 200 ppm [7]: ≥ 80%
- percent effect (mortality or growth inhibition) at 200 ppm [2]: ≥ 80%
- mortality at 200 ppm [3]: ≥ 80%
- percent effect (mortality or growth inhibition) at 200 ppm [4]: ≥ 80%

Compound: CCS(=O)(=O)c1cc(Br)c(N)nc1-c1nc2cc(C(F)(F)F)n(OC)c(=O)c2n1C [Compound A16, 2-(6-amino-5-bromo-3-ethylsulfonyl-2-pyridyl)-5-methoxy-3-methyl-6-(trifluoromethyl)imidazo[4,5-c]pyridin-4-one]
- percent control (mortality, anti-feedant effect or growth inhibition) at 200 ppm [1]: ≥ 80%
- percent effect (mortality or growth inhibition) at 200 ppm [7]: ≥ 80%
- percent effect (mortality or growth inhibition) at 200 ppm [2]: ≥ 80%
- mortality at 200 ppm [3]: ≥ 80%
- percent effect (mortality or growth inhibition) at 200 ppm [4]: ≥ 80%

Compound: CCSc1cc(Br)cnc1-c1nc2cc(C(F)(F)F)n(OC)c(=O)c2n1C [Compound A19, 2-(5-bromo-3-ethylsulfanyl-2-pyridyl)-5-methoxy-3-methyl-6-(trifluoromethyl)imidazo[4,5-c]pyridin-4-one]
- percent control (mortality, anti-feedant effect or growth inhibition) at 200 ppm [1]: ≥ 80%
- percent effect (mortality or growth inhibition) at 200 ppm [7]: ≥ 80%
- percent effect (mortality or growth inhibition) at 200 ppm [2]: ≥ 80%
- mortality at 200 ppm [3]: ≥ 80%
- percent effect (mortality or growth inhibition) at 200 ppm [4]: ≥ 80%

Compound: CCSc1cc(C(F)(F)F)cnc1-c1nc2cc(C(F)(F)F)n(OC)c(=O)c2n1C [Compound A21, 2-[3-ethylsulfanyl-5-(trifluoromethyl)-2-pyridyl]-5-methoxy-3-methyl-6-(trifluoromethyl)imidazo[4,5-c]pyridin-4-one]
- percent control (mortality, anti-feedant effect or growth inhibition) at 200 ppm [1]: ≥ 80%
- percent effect (mortality or growth inhibition) at 200 ppm [7]: ≥ 80%
- percent effect (mortality or growth inhibition) at 200 ppm [2]: ≥ 80%
- mortality at 200 ppm [3]: ≥ 80%
- percent effect (mortality or growth inhibition) at 200 ppm [4]: ≥ 80%

Compound: CCSc1ccccc1-c1nc2cc(C(F)(F)F)n(OC)c(=O)c2n1C [Compound A22, 2-(2-ethylsulfanylphenyl)-5-methoxy-3-methyl-6-(trifluoromethyl)imidazo[4,5-c]pyridin-4-one]
- mortality at 24 ppm [6]: ≥ 80%
- percent control (mortality, anti-feedant effect or growth inhibition) at 200 ppm [1]: ≥ 80%
- percent effect (mortality or growth inhibition) at 200 ppm [7]: ≥ 80%
- percent effect (mortality or growth inhibition) at 200 ppm [2]: ≥ 80%
- mortality at 200 ppm [3]: ≥ 80%
- percent effect (mortality or growth inhibition) at 200 ppm [4]: ≥ 80%

Compound: CCSc1cc(C2(C#N)CC2)ccc1-c1nc2cc(C(F)(F)F)n(OC)c(=O)c2n1C [Compound A23, 1-[3-ethylsulfanyl-4-[5-methoxy-3-methyl-4-oxo-6-(trifluoromethyl)imidazo[4,5-c]pyridin-2-yl]phenyl]cyclopropanecarbonitrile]
- percent control (mortality, anti-feedant effect or growth inhibition) at 200 ppm [1]: ≥ 80%
- percent effect (mortality or growth inhibition) at 200 ppm [7]: ≥ 80%
- percent effect (mortality or growth inhibition) at 200 ppm [2]: ≥ 80%
- percent effect (mortality or growth inhibition) at 200 ppm [4]: ≥ 80%

Compound: CCSc1cc(C(C)(C)C#N)cnc1-c1nc2cc(C(F)(F)F)n(OC)c(=O)c2n1C [Compound A24, 2-[5-ethylsulfanyl-6-[5-methoxy-3-methyl-4-oxo-6-(trifluoromethyl)imidazo[4,5-c]pyridin-2-yl]-3-pyridyl]-2-methyl-propanenitrile]
- percent effect (mortality or growth inhibition) at 200 ppm [7]: ≥ 80%
- percent effect (mortality or growth inhibition) at 200 ppm [2]: ≥ 80%
- percent effect (mortality or growth inhibition) at 200 ppm [4]: ≥ 80%

Compound: CCSc1cc(C(C)(C)C#N)ccc1-c1nc2cc(C(F)(F)F)n(OC)c(=O)c2n1C [Compound A25, 2-[3-ethylsulfanyl-4-[5-methoxy-3-methyl-4-oxo-6-(trifluoromethyl)imidazo[4,5-c]pyridin-2-yl]phenyl]-2-methyl-propanenitrile]
- percent effect (mortality or growth inhibition) at 200 ppm [7]: ≥ 80%
- percent effect (mortality or growth inhibition) at 200 ppm [4]: ≥ 80%

Compound: CCS(=O)(=O)c1cccnc1-c1nc2cc(C(F)(F)F)n(OC)c(=O)c2n1C [drawing 144, reference compound]
- Mortality (%) ([6]; Myzus persicae (systemic), concentration 1.5 ppm): 0%
- Mortality (%) ([1]; concentration 12.5 ppm): 0%
- Mortality (%) ([2]; concentration 12.5 ppm): 0%
- Mortality (%) ([3]; Myzus persicae (feeding/contact), concentration 50 ppm): 50%
- Mortality (%) ([4]; concentration 50 ppm): 0%
